Laboratory results as given in patent publication US7947647B2, “Synthetic mimics of mammalian cell surface receptors: method and compositions” (The Penn State Research Foundation, priority 2004, dated 2011).

Legend:
[1] = biological target: rabbit polyclonal anti-DNP IgG; assay: Fluorescence polarization binding of DNP and NBD derivatives to anti-DNP IgG; details: apparent affinity, PBS pH 7.4, read-out: dissociation constants (Kd)
[2] = system: Jurkat lymphocytes; assay: Antibody uptake assay and uptake kinetics (flow cytometry); type: cell-based, human; details: for efficiency as mediator of ligand (IgG) uptake: anti-DNP/PrA-AF488, flow cytometry
Method: Antibody uptake assays (FIG. 8, Panels A-B, FIG. 10, and FIG. 11). Synthetic receptors 2-9 in DMSO were diluted in RPMI media (0.5 mL, final DMSO concentration=1%) containing Jurkat lymphocytes (1×10^6). These receptor-treated cells were incubated at 37° C. for 1 h, washed with RPMI media (2×0.5 mL) to remove unincorporated receptors/DMSO, and resuspended in fresh media (89 μL). To these cells was added a pre-equilibrated complex (preincubated at 23° C. for 1 h) of anti-DNP IgG (9.6 μg) and the PrA-Alexa Fluor conjugate (PrA-AF488 or PrA-AF633, 3 μg) in phosphate-buffered saline (11 μL, pH 7.4, total volume=100 μL). Cells were typically maintained at 37° C. for 4 h to promote synthetic receptor-mediated endocytosis. Prior to analysis, treated cells were washed with media (0.5 mL), washed again with media containing 6-(2,4-dinitrophenyl)aminohexanoic acid (100 μM, 3×0.5 mL×20 min, 1% DMSO) to compete away any non-internalized protein, washed again with media (0.5 mL), and resuspended in media (0.6 mL) for analysis by epifluorescence microscopy, confocal microscopy, or flow cytometry.
Antibody uptake kinetics (FIG. 8, Panel C). To determine the relative uptake rates shown on the left of FIG. 8C, Jurkat lymphocytes were subjected to the antibody uptake assay (cells were treated with receptors 2-5 at 10 μM for 1 h followed by addition of a pre-equilibrated complex (preincubated at 23° C. for 1 h) of anti-DNP-IgG/PrA-AF488 for 15 min to 4 h) and internalized cellular fluorescence was quantified by flow cytometry. […] Observed rates of ligand uptake (kobs) were calculated with a Michaelis-Menten kinetic model assuming saturating concentrations of substrate (kobs=(Ft−F0)/t). t=time (in minutes), Ft=fluorescence at the specified time, and F0=fluorescence at time=0 min. The slope of plots of fluorescence vs. time provided kobs values that were divided by the basal rate of endocytosis (no receptor) to determine the relative rates of uptake.
These cells were washed with ice-cold media (500 μL) and maintained at 4° C. A pre-equilibrated (1 h at 23° C.) ice-cold solution of RPMI media (100 μL) containing anti-DNP-IgG (7.2 μg) and PrA-AF488 (2 μg) was added. After 1 h at 4° C., the cells were washed with ice-cold RPMI media (2×500 μL). Cells were equilibrated at 37° C. for 20 min prior to fluorescence measurements to dissociate excess surface-bound antibody. After equilibration, uptake experiments were initiated (this was defined as t=0 min). Cells were subsequently incubated at 37° C. for fixed periods of time (0 to 3 h), cooled to 4° C. on ice, and washed with ice-cold RPMI media containing 6-(2,4-dinitrophenyl)aminohexanoic acid (100 μM, 1% DMSO, 3×0.5 mL×10 min at 4° C. followed by 2×0.5 mL×20 min at 23° C.) to remove non-internalized IgG. Intracellular fluorescence was quantified by flow cytometry. Cell surface fluorescence was calculated by subtracting this intracellular fluorescence from cellular fluorescence measured at t=0 min (after the initial equilibration at 37° C. for 20 min; the competition with 6-(2,4-dinitrophenyl)aminohexanoic acid was omitted to analyze this cellular fluorescence).
Synthetic receptors were evaluated as mediators of cellular uptake of protein ligands in living Jurkat lymphocytes, a human T cell line. Confocal laser scanning microscopy and flow cytometry were employed to analyze cells treated with compounds 2-9 for 1 hour followed by addition of anti-DNP IgG complexed with fluorescent conjugates of the IgG-binding protein A (PrA) from S. aureus. […] (FIG. 9, Panel A). This intracellular red fluorescence was 59-fold lower in the absence of receptor 6 consistent with a synthetic receptor-mediated uptake mechanism. The IgG-loaded intracellular compartments were identified as late endosomes and lysosomes by co-localization studies in cells transfected with EGFP-lgp120, a fluorescent protein marker of these compartments.

[3] = system: Jurkat lymphocytes; assay: Cellular stability (cell surface half-life) of receptor; type: cell-based, human; details: 10 μM receptor 1 h, detected with anti-DNP/PrA-AF488
Method: Quantification of the cellular stability of receptor 2 (FIG. 9, Panel C). Jurkat lymphocytes (1×10^7) were incubated with receptor 2 in media (5 mL, 10 μM receptor, 1% DMSO) for 1 h at 37° C. in a 15 mL aerated centrifuge tube. Cells were washed with media (2×5 mL) to remove unincorporated receptor, resuspended in media (10 mL), transferred 2) to a tissue culture flask (25 cm^2), and maintained at 37° C. At fixed time points, an aliquot of this culture (1 mL) was removed from the flask and cells isolated by centrifugation. These cells were resuspended in media (89 μL) and a pre-equilibrated (23° C. for 1 h) complex of anti-DNP IgG (9.6 μg) and PrA488 (3 μg) in phosphate buffered saline (PBS, 11 μL, pH 7.4) was added for 5 min at 37° C. Treated cells were centrifuged (1300 g for 2 min), the supernatant was removed, cells were resuspended in media (0.5 mL), and cellular fluorescence was analyzed by flow cytometry. […]
To evaluate the temporal stability of receptor 2 on the cell surface, the half-life of this compound on Jurkat lymphocytes was quantified by addition of a soluble antibody. Cells were treated with this receptor for 1 hour (10 μM), unincorporated receptor was removed by washing cells with fresh media, and the abundance of 2 as a function of time was detected with a green fluorescent anti-DNP/PrA-AF488 complex.

[4] = system: Jurkat lymphocytes; assay: Efflux kinetics from endosomes to plasma membrane by back exchange; type: cell-based, human
Method: FIG. 11. Quantification of efflux kinetics of receptor 10 from endosomes to the plasma membrane of Jurkat lymphocytes by back exchange. Cells treated with 10 (1 μM, 1 hour) were cooled to 4° C. and cell surface fluorophores removed (>90%) by repeated washing with ice-cold back exchange media containing BSA (1%) and methyl-β-cyclodextrin (2 mM). Cells were resuspended in back exchange media at 37° C. to resume recycling, cellular fluorescence was quantified by flow cytometry, and loss of fluorescence was evaluated with a one-site exponential decay model.
Quantification of efflux kinetics of receptor 10 from endosomes to the plasma membrane by back exchange (FIG. 11). The efficiency of removal of 10 from the plasma membrane was examined prior to analysis of efflux kinetics. Jurkat lymphocytes (3×10^6) were suspended in ice-cold serum free recycling media (1.5 mL) and maintained on ice (2 min) to block plasma membrane recycling. These cells were resuspended in ice-cold serum free recycling media (1.5 mL, 1% DMSO) containing 10 (1 μM) and maintained on ice (10 min) to allow association of 10 with the plasma membrane. Receptor-treated cells were washed with ice-cold serum free recycling media (2×0.5 mL), resuspended in ice-cold serum free recycling media (1.5 mL), and analyzed by flow cytometry.
These cells were washed with serum free recycling media (2×1 mL) to remove unincorporated receptor (10). These receptor-treated cells were cooled on ice (5 min) to halt recycling and washed with ice-cold back-exchange media (6×1.5 mL×10 min) to selectively remove 10 from the cell surface without affecting the population of 10 in intracellular endosomes. These cells were resuspended in warm back exchange media (37° C., 1.5 mL) to initiate plasma membrane recycling and immediately analyzed by flow cytometry (defined as t=0 min). Cells were isolated by centrifugation, resuspended in warm back exchange media (1.5 mL, 37° C.), incubated at 37° C., and analyzed by flow cytometry as a function of time.
To quantify the rate of plasma membrane recycling, oregon green-derived receptor 10 was employed. Unlike the more strongly cell-associated DNP and NBD-based receptors, the compound 10 binds proteins in cell culture media and can be rapidly and efficiently depleted from cell surfaces by washing cells with “back exchange” media containing bovine serum albumin (BSA, 1%) and methyl-beta-cyclodextrin (Me-beta-CD, 2 mM). This concentration of Me-beta-CD is known to affect neither endocytosis nor plasma membrane recycling. The oregon green-fluorophore of 10 was also chosen for these studies because unlike structurally similar carboxydifluorescein the fluorescence of oregon green is not appreciably quenched in acidic environment of endosomal compartments. […]

[5] = system: mouse J-774 cells and human HeLa cells; assay: Flow cytometric analysis of cellular uptake of fluorescent vancomycin 2; type: cell-based
Method: FIG. 18. Flow cytometric analysis of cellular uptake of fluorescent vancomycin 2 promoted by synthetic receptor 3 and control compounds. Preload conditions: Receptor 3 or analogues (4, 5) were added to cells for 1 h to load the plasma membrane, cells were washed, and 2 (3 μM) was added for 4 h. Premix conditions: Receptor 3 or analogues (4, 5) were preequilibrated with 2 (3 μM) at 23° C. for 1 h followed by addition of this mixture to cells for 4 h.
The dose-dependent effectiveness of delivery of 2 into mouse J-774 cells and human HeLa cells mediated by […] was examined quantitatively by flow cytometry.

[6] = read-out: affinity for vancomycin (Kd); cited from earlier work
[7] = 10 μM receptor for 1 hour, anti-DNP/PrA-AF488

6-(7-nitrobenzofuran-4-ylamino)hexanoic acid [compound 28, reference compound]
Kd [1]: 820 ± 144 nM

O=C(CCCCCNc1ccc([N+](=O)[O-])cc1[N+](=O)[O-])NCCCNC(=S)Nc1ccc(-c2c3ccc(=O)cc-3oc3cc(O)ccc23)c(C(=O)O)c1 [compound 27]
Kd [1]: 23 ± 1.5 nM

CC(C)CCC[C@@H](C)[C@H]1CC[C@H]2[C@@H]3CC=C4C[C@@H](NCCCNC(=O)CCNC(=O)CCNC(=O)CCCCCNc5ccc([N+](=O)[O-])cc5[N+](=O)[O-])CC[C@]4(C)[C@H]3CC[C@]12C [receptor 2, N-(3-{[3-({3-[(3β)-cholest-5-en-3-ylamino]propyl}amino)-3-oxopropyl]amino}-3-oxopropyl)-6-[(2,4-dinitrophenyl)amino]hexanamide]
enhancement of cellular uptake of anti-DNP IgG in magnitude compared with basal levels of endocytosis [2, 7]: 208 fold | enhancement of cellular uptake of anti-DNP IgG in rate compared with basal levels of endocytosis [2, 7]: 391 fold | efficiency as mediator of ligand (IgG) uptake [2]: by far the most efficient | rate of uptake (k) ([2]; receptor at 1 μM, anti-DNP-IgG/PrA-AF488, 37° C.): 0.007327 ± 0.000006 min⁻¹ | ligand internalization half-life (t1/2) ([2]; receptor at 1 μM, calculated as (ln 2)/k): 1.58 h | cell surface half-life [3]: 20 h

CC(C)CCC[C@@H](C)[C@H]1CC[C@H]2[C@@H]3CC=C4C[C@@H](NCCCNC(=O)CCNC(=O)CCCCCNc5ccc([N+](=O)[O-])cc5[N+](=O)[O-])CC[C@]4(C)[C@H]3CC[C@]12C [receptor 3, N-[3-({3-[(3β)-cholest-5-en-3-ylamino]propyl}amino)-3-oxopropyl]-6-[(2,4-dinitrophenyl)amino]hexanamide]
efficiency as mediator of ligand (IgG) uptake [2]: dramatically diminished the effectiveness

CC(C)CCC[C@@H](C)[C@H]1CC[C@H]2[C@@H]3CC=C4C[C@@H](NCCCNC(=O)CCCCCNc5ccc([N+](=O)[O-])cc5[N+](=O)[O-])CC[C@]4(C)[C@H]3CC[C@]12C [receptor 4, N-{3-[(3β)-cholest-5-en-3-ylamino]propyl}-6-[(2,4-dinitrophenyl)amino]hexanamide]
efficiency as mediator of ligand (IgG) uptake [2]: dramatically diminished the effectiveness

CC(C)CCC[C@@H](C)[C@H]1CC[C@H]2[C@@H]3CC=C4C[C@@H](NC(=O)CCNC(=O)CCCCCNc5ccc([N+](=O)[O-])cc5[N+](=O)[O-])CC[C@]4(C)[C@H]3CC[C@]12C [receptor 5, N-{3-[(3β)-cholest-5-en-3-ylamino]-3-oxopropyl}-6-[(2,4-dinitrophenyl)amino]hexanamide]
efficiency as mediator of ligand (IgG) uptake [2]: essentially abolished internalization of IgG | reduction of IgG delivery relative to receptor 4 (secondary amine converted to secondary amide) ([2]; at 10 μM): over 50 fold

CC(C)CCC[C@@H](C)[C@H]1CC[C@H]2[C@@H]3CC=C4C[C@@H](NCCCNC(=O)CCNC(=O)CCNC(=O)CCCCCNc5ccc([N+](=O)[O-])c6nonc56)CC[C@]4(C)[C@H]3CC[C@]12C [receptor 6, N-(3-{[3-({3-[(3β)-cholest-5-en-3-ylamino]propyl}amino)-3-oxopropyl]amino}-3-oxopropyl)-6-(7-nitrobenzofurazan-4-ylamino)hexanamide]
intracellular red fluorescence lower in the absence of receptor ([2]; 10 μM receptor, red fluorescent anti-DNP IgG/PrA): 59 fold

CC(C)CCCC(C)[C@H]1CCC2C3CC=C4CC(NCCCNC(=O)CCNC(=O)c5ccc(-c6c7cc(F)c(=O)cc-7oc7cc(O)c(F)cc67)c(C(=O)O)c5)CC[C@]4(C)C3CC[C@@]21C (stereo partly shown) [receptor 10]
recycling half-life ([4]; 1 μM, back exchange media 37° C., one-phase exponential decay): 2.8 ± 0.8 min | removal of receptor from the cell surface ([4]; additional/repeated wash steps with back-exchange media): > 90% | loss of total cellular fluorescence ([4]; four total wash steps with back-exchange media, 1 μM): 84% | loss of total cellular fluorescence ([4]; single wash with ice-cold back-exchange media, 1 μM): 44%

AcNH-D-Phe-D-Ala-CO2H
effect of soluble competitor on receptor-mediated ligand uptake [5]: blocked

D-Phe-D-Ala [D-Phe-D-Ala dipeptide]
Kd [6]: ~7000 nM
